Drawing on US20230119479A1, “A HISTONE DEACETYLASE INHIBITOR HAVING A NITROGEN-CONTAINING AROMATIC HETEROCYCLYL GROUP” (SHIONOGI & CO., LTD., priority 2019, published 2023), this text covers IC50 for 66 compounds.

A word on the pIC50: it is the IC50 on a negative log10 scale, so that one unit is a factor of ten.

Structures are written as SMILES. pIC50: −log10 of the molar value.

For the first assay, the target named is T1, HDAC2 Human recombinant C-terminal FLAG-tag (Homo sapiens, UniProt Q92769).
T1 construct: FLAG (C); purchased BPS Bioscience 50052
T1 sequence (Q92769 whole entry): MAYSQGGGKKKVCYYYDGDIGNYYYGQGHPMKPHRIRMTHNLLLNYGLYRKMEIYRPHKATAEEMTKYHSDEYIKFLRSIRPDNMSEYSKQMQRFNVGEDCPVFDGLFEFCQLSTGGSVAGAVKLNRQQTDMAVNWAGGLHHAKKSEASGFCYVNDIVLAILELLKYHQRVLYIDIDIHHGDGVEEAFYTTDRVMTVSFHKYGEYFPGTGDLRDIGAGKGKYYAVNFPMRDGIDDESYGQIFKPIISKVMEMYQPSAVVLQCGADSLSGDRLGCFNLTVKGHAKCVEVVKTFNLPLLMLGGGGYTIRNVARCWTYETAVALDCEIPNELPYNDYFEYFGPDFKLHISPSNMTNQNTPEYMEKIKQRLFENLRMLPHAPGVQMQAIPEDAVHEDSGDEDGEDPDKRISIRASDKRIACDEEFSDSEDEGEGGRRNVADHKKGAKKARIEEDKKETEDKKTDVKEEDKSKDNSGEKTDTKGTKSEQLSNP
As to the kind of experiment: Measurement of HDAC2 enzyme inhibitory activity (HTRF). It is filed as biochemical. As to conditions: recombinant HDAC2, H3K9ac peptide, 3 hours room temperature; read-out: HDAC2 IC50. As for the experimental part:
Test Example 1: Measurement of HDAC2 Enzyme Inhibitory Activity
The HDAC2 enzyme inhibitory activity was measured by the method described in the following test example.
To each well of a 384-well plate (Corning, 4514), DMSO solution of the test compound was dispensed at 50 nL/well from a final concentration of 99 μM to 8 points (n=2) in the 3-fold dilution series using Echo555 (Beckman Coulter). 2.5 μl of 0.005 mg/mL recombinant enzyme HDAC2 (HDAC2 Human recombinant C-terminal FLAG-tag, BPS Bioscience, 50052) was added to each well, 2.5 μl of 0.6 μM H3K9ac peptide (Lys(Ac)9-Histone H3 (1-21)-GGK(Biotin), AnaSpec, 64361) was added, mixed, and reacted in a wet box at room temperature for 3 hours. 50 mM Tris HCL pH8.0, 137 mM sodium chloride, 2.7 mM potassium chloride, 1 mM magnesium chloride, 0.01% Tween20, and 0.1% BSA which were diluted with ultrapure water were used as a reaction buffer at this time. After the reaction, 5 μL of 10 μM SAHA (suberoylanilide hydroxamic acid) as a reaction terminator and the 5 μL of a mixture of 2.5 ng of H3K9me0 antibody (ActiveMotif, 61399) labeled in-house with europium cryptate (Cisbio, 65EUSABA) and 125 nM streptavidin-XL665 (Cisbio, 610SAXLA) as an HTRF (time-resolved fluorescence) reagent were added to each well, mixed, and allowed to stand in a wet box at room temperature for reaction. A detection buffer used at this time was 50 mM Tris HCL pH 8.0, 0.8 M potassium fluoride, and 0.1% BSA which were diluted with ultrapure water. After reacting for 2 hours or more, HTRF was measured using a multi-plate reader such as SpectraMax Paradigm (MOLECULAR DEVICE) or RUBYstar (BMG LABTECH). Ratio (665 nm/615-620 nm×10000) was calculated from the fluorescence values of two wavelengths, 615-620 nm and 665 nm, which were excited at 320-340 nm, and the energy transition was obtained.
In the case of `Cn1cc(-c2cnc(C(=O)Nc3nc(-c4ccc(F)nc4)ccc3N)cn2)cn1` [Compound I-079], the pIC50 is 6.32. As for `Nc1ccc(-c2ccc(F)nc2)cc1NC(=O)c1cnccn1` [Compound I-114], the negative logarithm of the IC50 (pIC50) is 6.59. In the case of `Nc1ccc(-c2ccc(F)nc2)cc1NC(=O)c1cnc(NCC(F)(F)F)cn1` [Compound I-288], the pIC50 was 6.64. On to `Nc1ccc(-c2ccc(F)nc2)cc1NC(=O)c1ccccn1` [Compound I-113], for which the pIC50 was 6.49. For `Nc1ccc(-c2ccccc2)nc1NC(=O)c1ccc2c(n1)OCC(=O)N2` [Compound I-233], the pIC50 was 6.55. `Nc1ccc(-c2cncs2)cc1NC(=O)c1ccc2c(n1)CCC2` [Compound I-083]: the pIC50 is 6.80. Still for that read-out and setting: with `Nc1ccc(-c2ccc(F)nc2)cc1NC(=O)c1cnc(N2CC3(CCO3)C2)cn1` [Compound I-235] the figure was 7.22; with `Nc1ccc(-c2cncs2)cc1NC(=O)c1cc2c(cn1)OCCO2` [Compound I-073], 6.92; with `COCCOc1cnc(C(=O)Nc2cc(-c3cnn(C)c3)ccc2N)cn1` [Compound I-230], 6.60.

As for `Cc1nnc(-c2ccc(C(=O)Nc3cc(-c4ccc(F)nc4)ccc3N)nc2)o1` [Compound I-133], the negative-log IC50 (pIC50) was 6.96. For `COCCOc1ccc(C(=O)Nc2nc(-n3cccc3)ccc2N)nc1` [Compound I-182], the pIC50 was 6.46. Take `Nc1ccc(-n2ccc(F)c2)cc1NC(=O)c1cnc(N2CCCOCC2)cn1` [Compound I-298]: the pIC50 was 6.89. On to `CC(=O)Nc1ccc(C(=O)Nc2nc(-c3ccccc3)ccc2N)nc1` [Compound I-281], for which the pIC50 was 6.64. On to `Cn1cc(-c2cnc(C(=O)Nc3cc(-c4cnco4)ccc3N)cn2)nn1` [Compound I-012], for which the pIC50 was 7.03. Take `Cn1cc(-c2cnc(C(=O)Nc3nc(-c4ccccc4)ccc3N)cn2)cn1` [Compound I-039]: the pIC50 is 6.38. `CCN(C)c1cnc(C(=O)Nc2cc(-c3cnn(C)c3)ccc2N)cn1` [Compound I-237]: the pIC50 is 6.80. On to `Nc1ccc(-c2ccc(F)nc2)cc1NC(=O)c1ccc(Cl)cn1` [Compound I-090], for which the pIC50 is 6.54. Regarding `Nc1ccc(-c2ccc(F)nc2)cc1NC(=O)c1cnc(N2CC(O)C2)cn1` [Compound I-282], the pIC50 is 7.30. As to `Nc1ccc(-c2ccccc2)nc1NC(=O)c1ccc2c(n1)OCO2` [Compound I-217], the pIC50 was 6.47. On to `Cn1cc(-c2ccc(C(=O)Nc3cc(-c4cnco4)ccc3N)nc2)cn1` [Compound I-004], for which the pIC50 was 7.19.

With `CN(C)c1cnc(C(=O)Nc2nc(-c3ccc(F)nc3)ccc2N)cn1` [Compound I-247], the pIC50 is 6.42.

Regarding `Cn1cc(-c2ccc(N)c(NC(=O)c3cnc(NCC(F)(F)F)cn3)c2)cn1` [Compound I-292], the pIC50 was 6.77. As for `Nc1ccc(-c2ccc(F)nc2)cc1NC(=O)c1ccc2c(n1)OCO2` [Compound I-183], the pIC50 is 7.32. Turning to `COCCOc1ccc(C(=O)Nc2cc(-c3cnn(C)c3)ccc2N)nc1` [Compound I-180], the negative-log IC50 (pIC50) is 6.68. For the compound `Cn1cc(-c2ccc(N)c(NC(=O)c3cc4c(cn3)OCCC4)c2)cn1` [Compound I-255], the negative-log IC50 (pIC50) is 6.39. Take `Nc1ccc(-n2ccc(F)c2)cc1NC(=O)c1cnc(N2CCOCC2)cn1` [Compound I-267]: the pIC50 is 7.00.

Regarding `Cc1cnc(C(=O)Nc2cc(-c3ccc(F)nc3)ccc2N)cn1` [Compound I-123], the pIC50 was 6.85.

Regarding `Nc1ccc(-c2cncs2)cc1NC(=O)c1cc2ccncc2cn1` [Compound I-060], the pIC50 was 7.33.

On to `Nc1ccc(-n2ccc(F)c2)cc1NC(=O)c1cnc(N2CCC2)cn1` [Compound I-300], for which the pIC50 was 7.15. Consider `Nc1ccc(-n2cccc2)nc1NC(=O)c1ccc2c(n1)OCC(=O)N2` [Compound I-234], for which the pIC50 was 6.62. As to `Nc1ccc(-c2cncs2)cc1NC(=O)c1ccc(OC(F)(F)F)cn1` [Compound I-021], the pIC50 was 6.66.

In the case of `Nc1ccc(-c2ccc(F)nc2)cc1NC(=O)c1cnc(-n2cncn2)cn1` [Compound I-128], the pIC50 was 6.74. Take `Nc1ccc(-c2ccc(F)nc2)cc1NC(=O)c1cnc(N2CC(CO)(CCl)C2)cn1` [Compound I-222]: the pIC50 is 7.10. `Cn1cc(-c2cnc(C(=O)Nc3cc(-c4ccco4)ccc3N)cn2)cn1` [Compound I-008]: the pIC50 is 6.92.

As for `CCc1ccc(C(=O)Nc2cc(-c3cnn(C)c3)ccc2N)nc1` [Compound I-175], the pIC50 was 6.77.

In the case of `Nc1ccc(-c2ccc(F)nc2)cc1NC(=O)c1ccc(CN2CCCC2=O)cn1` [Compound I-104], the pIC50 is 7.07. In the case of `COc1ccc(C(=O)Nc2cc(-c3cnn(C)c3)ccc2N)nc1` [Compound I-140], the pIC50 is 6.66. Take `CC(C)Oc1ccc(C(=O)Nc2cc(-c3ccc(F)nc3)ccc2N)nn1` [Compound I-289]: the pIC50 is 6.70. Regarding `COCCOc1cnc(C(=O)Nc2nc(-n3cccc3)ccc2N)cn1` [Compound I-232], the pIC50 is 6.49. With `COCc1cnc(C(=O)Nc2cc(-c3cnn(C)c3)ccc2N)cn1` [Compound I-219], the pIC50 was 6.51. On the same count and under the same terms, with `Cc1cnc(C(=O)Nc2cc(-c3ccc(F)nc3)ccc2N)c(F)c1` [Compound I-209] the figure was 6.82; with `CC#Cc1ccc(C(=O)Nc2cc(-c3cncs3)ccc2N)nc1` [Compound I-094], 6.64.

In the case of `CC(C)Nc1cnc(C(=O)Nc2cc(-n3ccc(F)c3)ccc2N)cn1` [Compound I-301], the negative logarithm of the IC50 (pIC50) is 6.51. As for `Nc1ccc(-c2ccc(F)nc2)cc1NC(=O)c1cnc(N2CCCC2)cn1` [Compound I-240], the pIC50 is 7.10. Consider `CC(C)c1ccc(C(=O)Nc2cc(-c3cnn(C)c3)ccc2N)nc1` [Compound I-153], for which the pIC50 was 6.68. On the same count and under the same terms, with `Nc1ccc(-c2ccc(F)nc2)cc1NC(=O)c1cnc(N2CCC2(CO)CCl)cn1` (stereo not drawn) [Compound I-225] the figure was 7.05; with `Nc1ccc(-c2ccc(F)nc2)cc1NC(=O)c1ccc(CO)cn1` [Compound I-192], 6.66; with `Nc1ccc(-c2cncs2)cc1NC(=O)c1ccc(C(F)(F)F)cn1` [Compound I-020], 6.59. On to `Cn1cc(-c2ccc(N)c(NC(=O)c3ccc(N4CCOCC4)nn3)c2)cn1` [Compound I-275], for which the negative-log IC50 (pIC50) was 6.59. In the case of `Nc1ccc(-c2ccc(F)nc2)cc1NC(=O)c1ccc(C2CCC2)cn1` [Compound I-243], the pIC50 was 6.59. With `Nc1ccc(-c2ccc(F)nc2)cc1NC(=O)c1ccc(OC(F)F)cn1` [Compound I-143], the pIC50 is 6.41.

`COc1cnc(C(=O)Nc2cc(-c3cnn(C)c3)ccc2N)nc1` [Compound I-258]: the negative-log IC50 (pIC50) was 6.06. The same measure, in the same setting: with `Cc1ccc(C(=O)Nc2cc(-c3ccc(F)nc3)ccc2N)nc1F` [Compound I-210] the figure was 6.72; with `Nc1ccc(-c2ccc(F)nc2)cc1NC(=O)c1cnc(N2CC3(COC3)C2)cn1` [Compound I-245], 7.15; with `Nc1ccc(-c2ccc(F)nc2)cc1NC(=O)c1ccc(OCC(F)(F)F)cn1` [Compound I-135], 6.33. As for `Cn1cc(-c2ccc(C(=O)Nc3nc(-n4cccc4)ccc3N)nc2)cn1` [Compound I-025], the negative logarithm of the IC50 (pIC50) is 6.43. For the compound `COCc1ccc(C(=O)Nc2cc(-c3ccc(F)nc3)ccc2N)nc1` [Compound I-208], the negative-log IC50 (pIC50) was 6.82. In the case of `Cn1cc(-c2cnc(C(=O)Nc3nc(-c4cccs4)ccc3N)c(F)c2)cn1` [Compound I-022], the pIC50 was 6.33. On to `Cn1cc(-c2cnc(C(=O)Nc3cc(-c4cccs4)ccc3N)cn2)cn1` [Compound I-007], for which the pIC50 was 7.02. On the same count and under the same terms, for `Cn1cc(-c2ccc(N)c(NC(=O)c3cc4c(cn3)OCCO4)c2)cn1` [Compound I-098] the value was 6.62. Take `Cn1cc(-c2ccc(C(=O)Nc3cc(-c4ccc(F)nc4)ccc3N)nc2)cn1` [Compound I-033]: the pIC50 is 7.06. On the same count and under the same terms, for `Nc1ccc(-c2ccc(F)nc2)cc1NC(=O)c1cnc(N2CCC2)cn1` [Compound I-221] the value was 7.30. For `Nc1ccc(-c2ccc(F)nc2)cc1NC(=O)c1cnc(C(F)F)cn1` [Compound I-145], the negative logarithm of the IC50 (pIC50) is 6.47.

For `Nc1ccc(-c2ccc(F)nc2)cc1NC(=O)c1ccc(N2CCCC2)nn1` [Compound I-271], the pIC50 is 7.05.

Still in this assay, the particulars now being: recombinant HDAC2, H3K9ac peptide; read-out: IC50 (HDAC2).
In the case of `CC(=O)Nc1cnc(C(=O)Nc2cc(-c3ccc(F)nc3)ccc2N)cn1` [Compound I-310], the pIC50 was 7.04. The same measure, in the same setting: with `CC(=O)Nc1ccc(C(=O)Nc2nc(-n3cccc3)ccc2N)nc1` [Compound I-305] the figure was 6.89.
